Values quoted from earlier work, collected in patent US7157490B2, “Phenylalanine derivatives as dipeptidyl peptidase inhibitors for the treatment or prevention of diabetes” (Merck & Co., Inc., priority 2002, dated 2007).

Assays:
rats = conditions: doubled from day 7
[1] = test system: mouse model of cyclophosphamide-induced neutropenia
DP-IV = target: T1, DP-IV (Homo sapiens, UniProt P27487)
T1 construct: GRF is rapidly degraded in plasma to GRF[3–44]; from tissue
T1 sequence (P27487 39-766 limits assumed): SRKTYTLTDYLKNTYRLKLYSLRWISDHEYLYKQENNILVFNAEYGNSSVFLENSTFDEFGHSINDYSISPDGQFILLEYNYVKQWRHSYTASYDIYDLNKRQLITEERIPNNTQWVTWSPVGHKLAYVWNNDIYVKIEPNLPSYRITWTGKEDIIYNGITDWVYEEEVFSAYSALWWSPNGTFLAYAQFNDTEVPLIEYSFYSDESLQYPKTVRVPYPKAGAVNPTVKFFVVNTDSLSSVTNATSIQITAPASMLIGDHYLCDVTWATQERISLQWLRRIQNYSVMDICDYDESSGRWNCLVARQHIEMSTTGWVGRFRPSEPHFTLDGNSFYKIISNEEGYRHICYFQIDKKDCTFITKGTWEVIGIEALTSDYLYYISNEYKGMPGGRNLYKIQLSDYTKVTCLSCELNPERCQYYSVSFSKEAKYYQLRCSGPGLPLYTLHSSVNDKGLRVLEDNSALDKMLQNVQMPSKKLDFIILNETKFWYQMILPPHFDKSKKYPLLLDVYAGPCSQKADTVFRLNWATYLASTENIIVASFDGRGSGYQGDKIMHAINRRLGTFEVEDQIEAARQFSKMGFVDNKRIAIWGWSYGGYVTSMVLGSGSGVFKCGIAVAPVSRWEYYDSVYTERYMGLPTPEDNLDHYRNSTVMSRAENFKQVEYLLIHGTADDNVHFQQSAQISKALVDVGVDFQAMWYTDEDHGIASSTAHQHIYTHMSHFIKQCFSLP

## CC(C)N1CCC(c2ccccc2)(c2ccccc2)CC1 [Prodipine, Pro-Pro-diphenyl-phosphonate]
rats
  cardiac allograft survival: 14 day

## CC(C)[C@H](N)C(=O)N1CCC[C@H]1B(O)O [Val-Boro-Pro]
[1]
  hematopoiesis: stimulated hematopoiesis

## diprotin A
DP-IV
  degradation of GRF in plasma to GRF[3–44]: prevented
